Assays:
murine Abcg2 = biological target: T1, murine Abcg2 (Mus musculus, UniProt Q7TMS5); test: Transepithelial transport assay in MDCK-II cells transduced with murine Abcg2; assay type: in vitro ADME
T1 sequence (Q7TMS5 1-657): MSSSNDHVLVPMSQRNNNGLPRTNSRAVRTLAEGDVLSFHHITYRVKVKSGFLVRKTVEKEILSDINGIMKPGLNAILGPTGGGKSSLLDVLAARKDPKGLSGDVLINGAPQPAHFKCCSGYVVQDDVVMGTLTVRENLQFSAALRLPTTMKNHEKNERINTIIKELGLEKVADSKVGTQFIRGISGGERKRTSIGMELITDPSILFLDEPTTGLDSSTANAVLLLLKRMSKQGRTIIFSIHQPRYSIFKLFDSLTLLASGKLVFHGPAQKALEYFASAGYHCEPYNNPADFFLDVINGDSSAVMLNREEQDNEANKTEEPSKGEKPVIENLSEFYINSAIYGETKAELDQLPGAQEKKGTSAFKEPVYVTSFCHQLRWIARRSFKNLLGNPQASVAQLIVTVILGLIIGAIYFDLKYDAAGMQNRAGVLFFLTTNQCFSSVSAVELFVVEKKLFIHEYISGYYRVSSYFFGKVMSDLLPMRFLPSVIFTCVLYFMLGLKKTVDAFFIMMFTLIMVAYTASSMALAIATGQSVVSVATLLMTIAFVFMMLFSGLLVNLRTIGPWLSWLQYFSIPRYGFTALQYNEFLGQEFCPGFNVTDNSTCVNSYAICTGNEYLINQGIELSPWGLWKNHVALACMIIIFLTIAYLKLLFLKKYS
Experimental: (§1) For in vitro assays, the polarized cell line Madin-Darby canine kidney (MDCK-II) and their murine Abcg2 and human ABCG2 transduced subclones, which were previously generated and provided by A.H. Schinkel from the Netherlands Cancer Institute (Amsterdam, The Netherlands), were used.
(§2) Transcellular transport assays were performed as previously described, with minor modifications (Figure S1). Transduced MDCK-II cells were seeded as a monolayer on microporous membrane filters (3.0 μm pore size, 24 mm diameter; Transwell® 3414; Costar, Corning, NY, USA) at a density of 1.0 x 10^6 cells/well. Cells were grown for three days with daily medium replacement.
(§3) During the experiment, quality controls were performed in terms of monolayer tightness at the beginning and end of the assay using Millicell®ERS (Millipore, Burlington, MA, USA), and monolayer confluence was tested at the end of the experiment by means of Lucifer Yellow permeability. Transport proficiency was simultaneously checked by testing a typical ABCG2 substrate (danofloxacin 10 μM) (Table S1).
(§4) (to verify that the potential transport was specifically due to ABCG2). […] This volume was replaced with fresh Opti-MEM medium. Finally, at t = 4 h 600 µL aliquots were taken from the apical and basal compartments of each well. All samples were stored at −20 °C until being analyzed by high-performance liquid chromatography (HPLC), as described below.
(§5) The relative efflux transport ratio was calculated as the basal to apical directed transport percentage divided by the apical to basal directed transport percentage at 4 h.
(§6) Tissue samples were homogenized with a mixture of 50% water:50% methanol with 0.5% HCl; 1 mL of solution per 0.1 g of organ was used. To each 100 µL of plasma, milk or tissue homogenate, 10 µL of an albendazole-2-aminosulfone solution (100 µg/mL) was added as an internal standard and 400 µL of acetonitrile was also added in order to precipitate proteins. After 10 min of being horizontally vortexed, samples were centrifuged at 10,500× g for 10 min at 4 °C. Supernatants were evaporated to dryness at 40 °C under a stream of nitrogen. Samples were reconstituted in 100 µL of cold methanol and injected into the HPLC system. However, samples for in vitro assays were directly injected into the HPLC system.
(§7) The chromatographic system used for sample analysis consisted of a Waters 2695 separation module and a Waters 2998 UV photodiode array detector. Separation of samples was performed on an analytical reversed-phase column (5 µm particle size, 250 × 4.6 mm, EVO C18 100 Å, Phenomenex®, Torrance, CA, USA). The mobile phase used for in vitro samples was trifluoroacetic acid 0.04%:methanol (40:60), whereas for in vivo samples, it was ammonium acetate 25 mM (pH 5):acetonitrile (85:15). In both cases, the flow rate was set to 1.00 mL/min and UV absorbance was measured at 260.3 nm.

[1] = Transepithelial transport assay in parental MDCK-II cells; assay type: in vitro ADME, canine; details: dog, danofloxacin 10 µM, positive control, read-out: Transport ratio (BA/AB)
Experimental: as §1, §2, §3, §4
(§8) Lumichrome appearance in the opposite compartment is presented as the fraction of total compound added at the beginning of the experiment and expressed as percentage. The relative efflux transport ratio was calculated as the basal to apical directed transport percentage divided by the apical to basal directed transport percentage at 4 h.

parental MDCK-II cells = test: as above; assay type: in vitro ADME, canine; details: danofloxacin 10 µM, positive control, 4 h
Experimental: as §1, §2, §3, §4, §8

Abcg2 (BCRP) [2] = biological target: T2, Abcg2 (BCRP) (Mus musculus, UniProt Q7TMS5); test: Transepithelial transport assay in MDCK-II cells transduced with murine Abcg2; assay type: in vitro ADME; details: mouse; danofloxacin 10 µM, positive control, 4 h, MDCK-II mABCG2; read-out: Transport ratio (BA/AB)
T2 sequence (Q7TMS5 1-657): T1 sequence (Q7TMS5 1-657)
Experimental: as §1, §2, §3, §4, §5, §6, §7

ABCG2 (BCRP) [3] = biological target: T3, ABCG2 (BCRP) (Homo sapiens, UniProt Q9UNQ0); test: Transepithelial transport assay in MDCK-II cells transduced with human ABCG2; assay type: in vitro ADME; details: human; danofloxacin 10 µM, positive control, 4 h, MDCK-II hABCG2; read-out: Transport ratio (BA/AB)
T3 sequence (Q9UNQ0 1-655): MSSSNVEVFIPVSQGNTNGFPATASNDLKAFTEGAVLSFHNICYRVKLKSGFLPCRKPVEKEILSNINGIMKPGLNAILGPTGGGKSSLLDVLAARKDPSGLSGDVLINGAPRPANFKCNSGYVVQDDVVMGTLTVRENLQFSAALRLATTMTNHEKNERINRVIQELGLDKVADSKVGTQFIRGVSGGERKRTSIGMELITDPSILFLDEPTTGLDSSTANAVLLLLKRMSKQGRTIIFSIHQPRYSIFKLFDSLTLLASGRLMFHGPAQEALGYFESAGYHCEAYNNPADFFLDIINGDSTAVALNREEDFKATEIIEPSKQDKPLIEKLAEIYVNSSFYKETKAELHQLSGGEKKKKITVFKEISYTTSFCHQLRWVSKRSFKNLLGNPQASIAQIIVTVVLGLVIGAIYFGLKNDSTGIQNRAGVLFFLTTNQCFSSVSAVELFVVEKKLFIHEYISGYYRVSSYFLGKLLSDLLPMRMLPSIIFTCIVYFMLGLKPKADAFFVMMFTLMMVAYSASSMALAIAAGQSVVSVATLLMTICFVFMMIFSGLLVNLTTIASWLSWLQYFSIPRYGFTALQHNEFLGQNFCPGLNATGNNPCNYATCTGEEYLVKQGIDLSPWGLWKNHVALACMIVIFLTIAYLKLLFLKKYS
Experimental: as §1, §2, §3, §4, §5, §6
as §7, with “The mobile phase used for in vitro samples was trifluoroacetic acid 0.04%:methanol (40:60), whereas for in vivo samples, it was ammonium acetate 25 mM (pH 5):acetonitrile (85:15).” left out

human ABCG2 = biological target: T4, human ABCG2 (Homo sapiens, UniProt Q9UNQ0); test: as above; assay type: in vitro ADME
T4 sequence (Q9UNQ0 1-655): T3 sequence (Q9UNQ0 1-655)
Experimental: as §1, §2, §3, §4, §5, §6
as §7, with “The mobile phase used for in vitro samples was trifluoroacetic acid 0.04%:methanol (40:60), whereas for in vivo samples, it was ammonium acetate 25 mM (pH 5):acetonitrile (85:15).” left out

[4] = Plasma levels in wild-type and Abcg2-/- male mice after intraperitoneal administration; details: for concentration at 45 min / concentration at 60 min: Plasma concentration
From the text: (§9) Animals were handled according to institutional and ARRIVE guidelines complying with European legislation (2010/63/EU). Experimental procedures were approved by the Animal Care and Use Committee of the University of León and the Junta de Castilla y León (ULE_010_2021). Abcg2^-/- and wild-type mice were used, all of >99% FVB/N genetic background, generated and kindly supplied by A. H. Schinkel (The Netherlands Cancer Institute).
(§10) All animals, which were aged from 9 to 14 weeks and weighed 30 g, were kept in a temperature-controlled environment with a cycle of 12 h of light and 12 h of darkness and received a standard diet and water ad libitum.
(§11) Blood samples were collected at different time points (5, 10, 20, 30, 45, 60, 90 and 120 min) by cardiac puncture under anesthesia with isoflurane. Organs were harvested at the 60 min time point. All animals were euthanized by cervical dislocation at the end of the experimental procedure. Heparinized blood samples were centrifuged immediately at 3000× g for 15 min. Plasma and organs were stored at −20 °C until HPLC analysis. Three to ten animals were used for each time point.
as §6, §7

[5] = Tissue distribution in wild-type and Abcg2-/- male mice; details: 10 mg/kg intraperitoneal; for concentration at 60 min: male, FVB/N, mouse, in vivo, ip, 10 mg/kg
From the text: as §9, §10, §11, §6, §7

in vivo = details: female, FVB/N, mouse, ip, 10 mg/kg, 10 mg/kg intraperitoneal
From the text: as §9, §10
Pups of approximately 10 days old were separated from their mothers four hours before the onset of the experiment. […] Milk secretion was stimulated by oxytocin (200 μL of a 1 UI/mL solution), subcutaneously injected to lactating mice 10 min before sample collection. […] Animals were euthanized by cervical dislocation at the end of the experiment. Four to five animals were used for each group.
Heparinized blood samples were centrifuged immediately at 3000× g for 15 min to obtain plasma. Milk and plasma were also stored at −20 °C until HPLC analysis.
as §6, §7

[6] = tested on: non-small-cell lung cancer (NSCLC) cell lines; details: p53-dependent mechanisms; cited from earlier work
HepG2 = details: liver cancer cell line HepG2; cited from earlier work
MCF-7 = details: breast cancer cell line MCF-7; cited from earlier work
Colo-205 = details: colorectal cancer cell line Colo-205; cited from earlier work
[7] = danofloxacin 10 µM, positive control, 4 h, MDCK-II mABCG2
[8] = danofloxacin 10 µM, positive control, 4 h, MDCK-II hABCG2
[9] = male, FVB/N, mouse, in vivo, ip, 10 mg/kg, Abcg2-/- male mice, 10 mg/kg intraperitoneal
[10] = male, FVB/N, mouse, in vivo, ip, 10 mg/kg, wild-type male mice, 10 mg/kg intraperitoneal

COc1ccc2c3c([nH]c2c1)[C@H](CC(C)C)N1C(=O)[C@H](CCC(=O)OC(C)(C)C)NC(=O)[C@@H]1C3 [Ko143]
Inhibition of ABCG2-mediated transport of lumichrome (murine Abcg2; Ko143 1 µM, lumichrome 10 µM, murine Abcg2 subclone): completely inhibited

CN1C[C@@H]2C[C@H]1CN2c1cc2c(cc1F)c(=O)c(C(=O)O)cn2C1CC1 [danofloxacin]
efflux ratio at 4 h, 10 µM [1]: 0.96 ± 0.08 | AB transport (%) (parental MDCK-II cells): 22.84 ± 2.99% | BA transport (%) (parental MDCK-II cells): 21.82 ± 1.79% | efflux ratio at 4 h, 10 µM (Abcg2 (BCRP) [2]): 9.24 ± 2.59 | AB transport (%) (murine Abcg2; [7]): 5.30 ± 1.97% | BA transport (%) (murine Abcg2; [7]): 45.77 ± 6.49% | efflux ratio at 4 h, 10 µM (ABCG2 (BCRP) [3]): 2.04 ± 0.57 | AB transport (%) (human ABCG2; [8]): 17.22 ± 2.98% | BA transport (%) (human ABCG2; [8]): 33.94 ± 4.07%

Cc1cc2nc3[nH]c(=O)[nH]c(=O)c3nc2cc1C [lumichrome]
In vitro transport by the transporter (substrate) (murine Abcg2; lumichrome 10 µM, murine variant): efficiently transported | In vitro transport by the transporter (substrate) (human ABCG2; lumichrome 10 µM, human variant): efficiently transported | Plasma AUC 20–120 min ([4]; Abcg2-/- male mice, 10 mg/kg intraperitoneal): 1290 ± 110 ng·h/mL | AUC ([4]; male, FVB/N, mouse, in vivo, ip, 10 mg/kg): 720 ± 50 ng·h/mL | concentration at 45 min [4, 9]: 1020 ± 260 ng/mL | concentration at 60 min [4, 9]: 850 ± 500 ng/mL | concentration at 45 min [4, 10]: 390 ± 240 ng/mL | concentration at 60 min [4, 10]: 400 ± 130 ng/mL | Tissue distribution (liver, kidney, small intestine, small intestine content, spleen, brain, testis) ([5]; male mice, 60 min): widely distributed in all organs analyzed | concentration at 60 min ([5]; Concentration in liver, Abcg2-/- male mice): 340 ± 120 ng/mL | concentration at 60 min ([5]; Concentration in liver, wild-type male mice): 150 ± 70 ng/mL | concentration at 60 min ([5]; Concentration in small intestine content, Abcg2-/- male mice): 310 ± 110 ng/mL | concentration at 60 min ([5]; Concentration in small intestine content, wild-type male mice): 850 ± 350 ng/mL | concentration at 60 min ([5]; Concentration in testis, Abcg2-/- male mice): 180 ± 50 ng/mL | concentration at 60 min ([5]; Concentration in testis, wild-type male mice): 80 ± 60 ng/mL | concentration at 30 min (in vivo; Milk concentration, Abcg2-/- lactating female mice): 430 ± 180 ng/mL | concentration at 30 min (in vivo; Milk concentration, wild-type lactating female mice): 1750 ± 730 ng/mL | concentration at 30 min (in vivo; Plasma concentration, Abcg2-/- lactating female mice): 280 ± 100 ng/mL | concentration at 30 min (in vivo; Plasma concentration, wild-type lactating female mice): 310 ± 60 ng/mL | Concentration suppressing growth and inducing apoptosis [6]: above 25 µM | Concentration showing significant cytotoxic activity (HepG2): higher than 40 µM | Concentration showing significant cytotoxic activity (MCF-7): higher than 40 µM | Concentration showing significant cytotoxic activity (Colo-205): higher than 40 µM

Reference: paper PMC11431963 (International Journal of Molecular Sciences, 2024)
